Reference: patent publication US20240269145A1, “USE OF INDOLE COMPOUND AS INHIBITORS OF FERROPTOSIS” (MITOIMMUNE THERAPEUTICS INC., priority 2023, published 2024)

Key:
PC-12 cells [1] = experiment: Cytosolic iron ion accumulation (FerroOrange, images) after RSL3; format: cell-based; details: PC-12, 0.3 μM RSL3, 1 hour; Example Compound 1 1 μM, DFO 10 or 100 μM
Protocol: To confirm the inhibitory effect against cytosolic iron ion accumulation in adrenal medulla cells and cardiac cells, 3×10^5 PC-12 cells and H9C2 cells were each dispensed into a 35 mm confocal dish and cultured for 18 to 36 hours. Each well was treated with the Example Compound 1, which was diluted so that the final concentration became 1 μM, and with DFO, which was diluted so that the final concentration became 10 µM and 100 μM, and culture was performed for 20 to 30 minutes. Afterwards, the PC-12 cells and H9C2 cells were each treated with RSL3 and erastin so that their final concentration became 0.3 µM and 1 μM, respectively, and cultured for 1 hour and 7 hours. To confirm the inhibitory effect against cytosolic iron ion accumulation, FerroOrange [DOJINDO; F374] was used. According to the manufacturer's experimental method, FerroOrange was diluted in the cell culture medium so that the final concentration became 1 μM, and the cells were treated therewith. […] The cells fluorescently stained with FerroOrange were observed using a fluorescence microscope [Carl Zeiss; Axio Observer 7] to investigate the change in fluorescence (excitation/absorption 580 nm/543 nm) compared to the control group (RSL3 and erastin untreated group).

PC-12 cells [2] = experiment: Cytosolic lipid ROS after RSL3, Experimental Example 3-4; format: cell-based; details: PC-12, RSL3 0.3 μM, 1 hr
Protocol: [The source words this procedure for another cell line and says it was used here with some conditions changed.] Experimental Example 3-1: To confirm the protective effect against cytosolic lipid reactive oxygen species in lung epithelial cells, 2×10^5 MLE-12 cells were dispensed into each well of a 12-well plate and cultured for 18 to 24 hours. Each well was treated with Example Compound 1 and ferrostatin-1, which were diluted so that their final concentration became 0.01, 0.1, 1, and 10 μM, and culture was performed for 15 minutes. Afterwards, the cells were treated so that the final concentration of RSL3 became 1 μM, and cultured for 2 hours. To confirm the inhibitory effect against cytosolic lipid reactive oxygen species, BODIPY™ 581/591 C11 (lipid peroxidation sensor) [Invitrogen™; D3861] was used. According to the manufacturer's experimental method, BODIPY™ 581/591 C11 was diluted in the cell culture medium so that the final concentration became 5 μM, and the cells were treated therewith and allowed to react for 30 minutes to perform fluorescent staining. The MLE-12 cells fluorescently stained with BODIPY™ 581/591 C11 were detached from the 12-well plate using 0.25% Trypsin-EDTA and transferred to a microtube, and the fluorescence (excitation/absorption 500 to 650 nm/510 to 665 nm) was measured using BD FACSLyric™ to calculate the rate of change compared to the control group. […]

O=S1(=O)CCN(Cc2cc(NC3CCOCC3)c3[nH]c(-c4ccccc4)cc3c2)CC1 [Example 1, 5-[(1,1-dioxido-4-thiomorpholinyl)methyl]-2-phenyl-N-(tetrahydro-2H-pyran-4-yl)-1H-indole-7-amine]
cytosolic iron ion accumulation (images) (PC-12 cells [1]): decrease was confirmed | concentration at which cytosolic lipid reactive oxygen species were significantly decreased (PC-12 cells [2]): 0.1 µM
